The values that follow come from patent US8496928B2, “Method for preventing and treating cardiovascular diseases with BRCA1” (priority 2008, dated 2013).

What all share (type): cell-based, human
One test relates to eNOS, Akt, VEGFa. Description: eNOS/phospho-eNOS, Akt/phospho-Akt and VEGFa expression in HUVECs. Conditions: TNFα treatment. The method, then:
FIGS. 28A through 28E show eNOS/phospho-eNOS, Akt/phospho-Akt and VEGFa protein and RNA expression. Total protein and RNA were extracted from ad-null or ad-BRCA1 infected HUVECs treated thereafter with TNFα for 24 hours. As shown in FIGS. 28A and 28C, TNFα markedly elevated eNOS protein levels in BRCA1-overexpressing cells. […] Data are presented as mean±SEM of three independent experiments (*p<0.05, **p<0.01).
BRCA1 also promoted eNOS, phospho-eNOS, phospho-Akt and VEGFa expression. Since eNOS is essential for endothelial function, the potential regulation of endothelial nitric oxide synthase (eNOS) expression and phosphorylation by BRCA1 was examined via western blot analysis.
Western blot analysis was performed according to standard procedures. Proteins from whole cell lysates of HUVECs were resolved on SDS-polyacrylamide gels and transferred to nitrocellulose membranes (Bio-Rad). Membranes were probed with primary antibodies from Santa Cruz (BRCA1), Cell Signaling (p53, p21, Ser1177-phospho-eNOS, Akt, Ser473-phospho-Akt, cleaved caspase-3), Chemicon (GADD45a, GAPDH) and BD (eNOS). […]
Total RNA extracted from HUVECs were reverse transcribed for quantitative assessment of VCAM1, ICAM1, E-selectin and VEGFa expressions by real-time PCR using the primer pairs listed in Table 4.

For another test, the system named is GADD45, p21 and p53. The experiment in a line: Western blot of GADD45, p21 and p53 in HUVECs. The settings on record: TNFα. Here is the method:
In FIG. 25A cell cycle progression was assessed after adenoviral (ad-null or ad-BRCA1) infection of HUVECs and 24 hours of TNFα (20 ng/ml) treatment followed by Propidium Iodide staining coupled with flow cytometry. […] GAPDH was used as a loading control.
Western blot analysis was performed according to standard procedures. Proteins from whole cell lysates of HUVECs were resolved on SDS-polyacrylamide gels and transferred to nitrocellulose membranes (Bio-Rad). Membranes were probed with primary antibodies from Santa Cruz (BRCA1), Cell Signaling (p53, p21, Ser1177-phospho-eNOS, Akt, Ser473-phospho-Akt, cleaved caspase-3), Chemicon (GADD45a, GAPDH) and BD (eNOS). Immunoblots were incubated with the appropriate horseradish peroxidase-associated secondary antibodies before signals were visualized by chemiluminescence via the ECL detection system (GE Healthcare).
(In western blotting, separated proteins are transferred to a membrane and probed.)

The test system of the next test is HUVECs. Description: HUVEC apoptosis assays (Annexin V-FITC/PI flow cytometry, cleaved caspase-3, DNA fragmentation). The settings on record: ad-null infected HUVECs, TNFα 20 ng/ml 24 hours. Here is the method:
In FIG. 23A ad-null or ad-BRCA1 infected HUVECs were treated with TNFα (20 ng/ml) for 24 hours. Cells were harvested for Annexin V-FITC and Propidium Iodide staining followed by flow cytometry. Total apoptotic cells are shown as mean±SD (n=3 in triplicate, **p<0.01). In FIG. 23B, HUVECs were treated with either siBRCA1 (10 nM) or scrambled siRNA (10 nM) for 24 hours. BRCA1-silenced and control HUVECs were treated with TNFα (20 ng/ml), stained with Annexin V-FITC and Propidium Iodide, and analyzed by flow cytometry. The percentage of total apoptotic cells are presented as mean±SD (n=3 in triplicate, **p<0.01). […] Data was calculated as the percentage of total apoptotic cells and presented as mean±SD (n=3 in triplicate, **p<0.01).
FIG. 31 is a bar graph showing protection of HUVECs against doxorubicin-induced apoptosis by BRCA1 overexpression. […] Data was calculated as the percentage of total apoptotic cells and presented as mean±SD (n=3 in triplicate, *p<0.01 vs. Ad-null group, †p<0.01 vs. Ad-null+2 μM Dox group). […]
Human umbilical vein endothelial cells (HUVECs) were purchased from Cambrex and cultured in MCDB-131 complete medium (Cambrex Corporation). […] These concentrations were determined from pilot optimization studies. […]
Apoptotic and necrotic cell death were assessed in ad-BRCA1 and ad-null infected HUVECs by flow cytometry coupled with the BD Annexin V-FITC Apoptosis Detection Kit. […]

Take TNFα: the eNOS protein levels result with eNOS, Akt, VEGFa was “significant reduction”. The “protein levels of p53 and GADD45” value in the test with GADD45, p21 and p53 is “no influence”. The p21 protein levels entry in the test on GADD45, p21 and p53 (in the presence and absence of BRCA1 overexpression) is given as “significantly elevate”. For the same substance, the apoptosis entry in the test with HUVECs is on record as “significant apoptosis”.
